Measured values from ChEMBL document CHEMBL4177688, “Design, synthesis, and evaluation of A-ring-modified lamellarin N analogues as noncovalent inhibitors of the EGFR T790M/L858R mutant” (Bioorg Med Chem, 2017).

Assays:
[1] = target: Epidermal growth factor receptor (Homo sapiens, UniProt P00533); type: single protein
Description: Inhibition of recombinant wild type EGFR (696 to C-terminal residues) (unknown origin) preincubated for 30 mins followed by poly (Glu-Tyr) biotinylated peptide substrate addition measured after 30 mins in presence of ATP by ELISA

[2] = target: Epidermal growth factor receptor (Homo sapiens, UniProt P00533, L858R/T790M); assay: Inhibition of recombinant EGFR (unknown origin) T790M/L858R double mutant preincubated for 30 mins followed by poly (Glu-Tyr) biotinylated peptide substrate addition measured after 30 mins in presence of ATP by ELISA
Chain of Epidermal growth factor receptor (Homo sapiens, UniProt P00533, L858R/T790M) (P00533 25-1210 T790M/L858R limits assumed): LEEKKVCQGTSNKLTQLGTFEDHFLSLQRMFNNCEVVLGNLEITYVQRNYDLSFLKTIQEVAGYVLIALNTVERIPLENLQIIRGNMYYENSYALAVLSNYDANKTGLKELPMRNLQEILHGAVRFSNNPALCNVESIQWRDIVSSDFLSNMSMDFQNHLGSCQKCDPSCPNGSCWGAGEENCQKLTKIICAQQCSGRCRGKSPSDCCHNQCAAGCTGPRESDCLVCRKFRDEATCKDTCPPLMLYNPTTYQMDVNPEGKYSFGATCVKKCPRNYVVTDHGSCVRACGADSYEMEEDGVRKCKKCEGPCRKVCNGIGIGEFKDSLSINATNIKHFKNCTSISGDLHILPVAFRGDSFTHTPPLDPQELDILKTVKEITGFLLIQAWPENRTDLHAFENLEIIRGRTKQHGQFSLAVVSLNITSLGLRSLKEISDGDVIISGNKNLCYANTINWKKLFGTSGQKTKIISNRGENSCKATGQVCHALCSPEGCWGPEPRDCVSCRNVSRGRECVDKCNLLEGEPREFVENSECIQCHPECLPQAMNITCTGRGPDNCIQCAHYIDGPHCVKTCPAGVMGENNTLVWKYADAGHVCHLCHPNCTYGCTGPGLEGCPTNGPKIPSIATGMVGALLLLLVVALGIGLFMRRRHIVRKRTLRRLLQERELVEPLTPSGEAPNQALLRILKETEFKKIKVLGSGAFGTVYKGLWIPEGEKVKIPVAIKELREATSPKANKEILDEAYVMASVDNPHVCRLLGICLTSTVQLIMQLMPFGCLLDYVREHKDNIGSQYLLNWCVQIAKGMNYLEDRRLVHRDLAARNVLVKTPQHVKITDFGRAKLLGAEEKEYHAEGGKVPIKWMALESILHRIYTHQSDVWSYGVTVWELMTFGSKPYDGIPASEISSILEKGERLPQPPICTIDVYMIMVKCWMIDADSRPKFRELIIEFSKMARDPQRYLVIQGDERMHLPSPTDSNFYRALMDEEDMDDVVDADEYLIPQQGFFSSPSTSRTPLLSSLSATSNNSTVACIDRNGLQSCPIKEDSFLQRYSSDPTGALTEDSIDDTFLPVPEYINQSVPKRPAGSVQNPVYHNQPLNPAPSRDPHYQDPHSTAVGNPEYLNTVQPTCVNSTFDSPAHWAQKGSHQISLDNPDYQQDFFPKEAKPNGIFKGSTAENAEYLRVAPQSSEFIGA

Chain of Epidermal growth factor receptor (Homo sapiens, UniProt P00533) (P00533 whole entry): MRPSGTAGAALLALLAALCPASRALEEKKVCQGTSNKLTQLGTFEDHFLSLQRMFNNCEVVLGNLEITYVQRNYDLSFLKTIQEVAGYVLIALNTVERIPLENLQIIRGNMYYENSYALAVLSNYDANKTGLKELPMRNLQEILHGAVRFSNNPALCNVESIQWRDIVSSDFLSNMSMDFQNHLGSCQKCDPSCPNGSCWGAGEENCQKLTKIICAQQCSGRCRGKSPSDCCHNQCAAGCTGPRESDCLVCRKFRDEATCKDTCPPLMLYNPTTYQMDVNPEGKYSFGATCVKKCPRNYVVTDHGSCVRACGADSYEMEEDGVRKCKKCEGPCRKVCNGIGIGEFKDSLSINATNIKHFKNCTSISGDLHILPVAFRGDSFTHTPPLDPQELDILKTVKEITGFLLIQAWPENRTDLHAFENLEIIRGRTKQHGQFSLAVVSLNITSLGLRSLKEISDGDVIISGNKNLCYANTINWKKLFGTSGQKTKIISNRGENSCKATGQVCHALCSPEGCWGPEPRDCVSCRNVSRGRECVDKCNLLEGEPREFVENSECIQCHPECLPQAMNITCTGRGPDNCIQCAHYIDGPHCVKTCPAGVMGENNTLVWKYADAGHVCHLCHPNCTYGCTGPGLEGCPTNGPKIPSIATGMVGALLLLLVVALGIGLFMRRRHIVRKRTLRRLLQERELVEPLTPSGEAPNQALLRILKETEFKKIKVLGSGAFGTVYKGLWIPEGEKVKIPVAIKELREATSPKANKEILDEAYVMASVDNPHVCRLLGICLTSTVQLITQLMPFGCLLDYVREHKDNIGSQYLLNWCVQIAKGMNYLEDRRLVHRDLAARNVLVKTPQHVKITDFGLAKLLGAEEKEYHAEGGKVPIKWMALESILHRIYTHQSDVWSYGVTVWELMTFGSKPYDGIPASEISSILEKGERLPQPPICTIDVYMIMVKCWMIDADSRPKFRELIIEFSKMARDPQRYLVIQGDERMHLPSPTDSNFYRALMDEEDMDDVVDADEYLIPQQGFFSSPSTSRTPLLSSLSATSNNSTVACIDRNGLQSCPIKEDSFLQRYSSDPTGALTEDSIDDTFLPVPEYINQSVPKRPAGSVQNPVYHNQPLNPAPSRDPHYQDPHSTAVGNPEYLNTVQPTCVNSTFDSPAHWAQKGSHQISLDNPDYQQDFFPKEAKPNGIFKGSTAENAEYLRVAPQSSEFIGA

Row | SMILES | IC50 [1] [nM] | IC50 [2] [nM]
1 | COc1ccc(-c2c3c4cc(OC)c(OC)cc4oc(=O)c3n3ccc4cc(O)c(OC)cc4c23)cc1O | > 1000 | > 1000
2 | COc1ccc(-c2c3c4cc(OC)c(OCCN(C)C)cc4oc(=O)c3n3ccc4cc(O)c(OC)cc4c23)cc1O | 595 | 560
3 | COc1ccc(-c2c3c4cc(OCCN(C)C)c(OC)cc4oc(=O)c3n3ccc4cc(O)c(OC)cc4c23)cc1O | 842 | > 1000
4 | COc1ccc(-c2c3c4cc(OC)c(OCCNC(=N)N)cc4oc(=O)c3n3ccc4cc(O)c(OC)cc4c23)cc1O | > 1000 | > 1000
5 | COc1ccc(-c2c3c4cc(OCCCN5CCOCC5)c(OCCCN5CCOCC5)cc4oc(=O)c3n3ccc4cc(O)c(OC)cc4c23)cc1O | > 1000 | > 1000

Stronger by IC50 [1], values ahead:

Row | IC50 [1] [nM] | IC50 [2] [nM] | SMILES
6 | 191 | 233 | COc1ccc(-c2c3c4cc(OCCN(C)C)c(OCCN(C)C)cc4oc(=O)c3n3ccc4cc(O)c(OC)cc4c23)cc1O
7 | 249 | 397 | COc1ccc(-c2c3c4cc(O)c(OC)cc4oc(=O)c3n3ccc4cc(O)c(OC)cc4c23)cc1O
8 | 47.8 | 82.6 | COc1ccc(-c2c3c4cc(O)c(OCCCN(C)C)cc4oc(=O)c3n3ccc4cc(O)c(OC)cc4c23)cc1O
9 | 31.8 | 8.9 | COc1ccc(-c2c3c4cc(OCCCN(C)C)c(OCCCN(C)C)cc4oc(=O)c3n3ccc4cc(O)c(OC)cc4c23)cc1O
10 | 215 | 188 | COc1ccc(-c2c3c4cc(OC)c(OCCCN(C)C)cc4oc(=O)c3n3ccc4cc(O)c(OC)cc4c23)cc1O
11 | 47 | 39 | COc1ccc(-c2c3c4cc(OC)c(OCCCNC(=N)N)cc4oc(=O)c3n3ccc4cc(O)c(OC)cc4c23)cc1O
